As usually defined, the IC50 is the point on the concentration scale where inhibition reaches its midpoint.

The subject of assay [1] is topoisomerase II from nuclear extracts of HL-60 cells. In words: DNA decatenation assay with HL-60 nuclear extracts (kDNA). Type of assay: biochemical, human. The note with it: catenated kDNA, 450 μM ATP, read-out: mean IC50, inhibition of DNA decatenation. As for the experimental part: Reagents for the assay were purchased from TopoGEN (catalog number 1001–1, TopoGEN, Inc., Port Orange, FL). Topoisomerase II was extracted according to the manufacturer's instructions from nuclei of HL-60 cells (ATCC; American Type Culture Collection, Manassas, Virginia, USA) and contained both isoforms as assessed by Western blotting. Calculation of specific topoisomerase II decatenation activity was based on complete decatenation of a given amount of catenated input DNA (100 ng kDNA) by a defined amount of nuclear extract containing the alpha and beta isoforms or of a defined amount of purified enzyme in a particular amount of time. The topoisomerase II activity from nuclei decatenated 0.07 ng catenated kDNA · min^-1 · ng^-1 extract. Purified topoisomerase II alpha (see above) decatenated 0.13 ng catenated kDNA · min^-1 · ng^-1. Vehicle (DMSO) or drug substance at concentrations to yield the desired end concentrations were added and samples were preincubated for 5 minutes at 37°C and 400 rpm in an Eppendorf thermomixer. Reactions were started by adding ATP (to 450 μM final concentration) to each sample and incubation was continued for 20 minutes. […] Gels were analyzed under a UV transilluminator and decatenated kDNA products were quantified using AlphaEaseFC (FluorChem 8900) image analysis software version 3.2.3 (Alpha Innotech, San Leandro, CA).

Assay [2] has as its system panel of serine/threonine/tyrosine protein kinases. In words: Kinase selectivity profiling, standard panel of kinases. Type of assay: biochemical. The following applies: in vitro, versus topoisomerase II. The text has this:
Based on homology structural models of the target, a purine scaffold was designed interactively using the Macromodel modeling software. The designed purine scaffold was subsequently used as a substructure query to search the Novartis compound collection. Around 50 molecules were retrieved in this manner and screened in an ATPase assay using purified full length tagged human topoisomerase II alpha. […] Subsequently, we carried out kinetic analysis with QAP 1 in order to corroborate the mode of action. […] The data were analyzed by non-linear regression analysis using the equations corresponding to competitive, uncompetitive, and mixed inhibition (see Methods) and a statistical analysis (F-test; p ≤ 0.05) was carried out to identify the best model. […] A linearized representation (Eady-Hofstee) of one of these experiments is depicted in Figure 1D. To confirm the mode of action of QAP 1, inhibition studies were also carried out in the presence of different concentration of the inhibitor at different ATP concentrations and the IC50 values were determined. […] Next, QAP 1 was tested against a panel of kinases in a radiometric assay. With the exception of subtle inhibition of the Ret and c-Src tyrosine kinases no effect of the compound was observed on other kinases in the panel, even at the highest concentration tested (Table 1). […]

Assay [3] addresses topoisomerase II alpha (Homo sapiens, UniProt P11388). In words: DNA-dependent ATPase assay (malachite green). Type of assay: biochemical. More on the design: screened in an ATPase assay using purified full length tagged human topoisomerase II alpha; made in house; host or cells: Sf21 insect cells, baculovirus (pFastBac1). The procedure:
DNA-dependent ATP hydrolysis of human topoisomerase II α was monitored by measuring the production of inorganic phosphate using acidic molybdate and malachite green. Specific ATPase activity of every batch was tested in a time-course to determine optimal incubation times and enzyme concentrations within the linear range of the assay. Reactions thus contained 10 – 40 nM topoisomerase II (dimer concentration) in reaction buffer (10 mM Tris HCl pH 7.5, 175 mM KCl, 0.1 mM EDTA, 5 mM MgCl2, 2 mM DTT, 2.5% glycerol and 1.7 nM supercoiled pUC18). The specific activity of the human topoisomerase II α enzyme measured in the ATPase assay was 0.24 μmol PO4·min^-1·mg^-1. […] Compounds at the indicated concentrations were added as serial dilutions prepared in DMSO and preincubated for 10 minutes at 37°C on an orbital shaker. Reactions were started by the addition of 400 μM ATP (Sigma, catalog number A2383) and allowed to proceed for 30 minutes. Reactions were terminated by the addition of 200 μl malachite green reagent and the OD was read immediately at 630 nm on a SpectraMax Plus microtiter plate reader using SoftMax Pro software (Molecular Devices). For kinetic analysis, reactions were carried out in duplicate as described above either in the presence of vehicle (DMSO) or QAP 1. Following a preincubation for 5 minutes, ATP was added at the indicated concentrations to start the reactions, which were allowed to proceed for 17 minutes before stopping and reading as above. From these values the OD values obtained at each respective ATP concentration without enzyme were subtracted for background correction. […] A compromise was found by carrying out the competition experiments with a single concentration of the inhibitor that gave a good inhibition of enzyme activity while keeping a measurable signal. The equations used to fit these experiments are: […]
Each competition experiment was fitted (Grafit version 5.04 – Erithacus Software) with these 3 equations and the models that gave unrealistic inhibition constants (above 10 mM) and/or large standard errors (similar to the value of the fitted parameter) were rejected. Then, the F-test was carried out to identify the best fitting model. An alternative method was used to determine the mode of action of the inhibitor. Dose-response experiments were carried out at different ATP concentrations and the corresponding IC50s determined. According to the Cheng-Prusoff equation for linear competitive inhibition: […]
The IC50 of a competitive inhibitive inhibitor should increase in a linear fashion with the concentration of ATP. The measured IC50s were then plotted in function of the ATP concentrations and linear regression analyses were carried out. […] Mean Km and Vmax values were calculated from two independent experiments.

Sequence of topoisomerase II alpha (P11388 whole entry): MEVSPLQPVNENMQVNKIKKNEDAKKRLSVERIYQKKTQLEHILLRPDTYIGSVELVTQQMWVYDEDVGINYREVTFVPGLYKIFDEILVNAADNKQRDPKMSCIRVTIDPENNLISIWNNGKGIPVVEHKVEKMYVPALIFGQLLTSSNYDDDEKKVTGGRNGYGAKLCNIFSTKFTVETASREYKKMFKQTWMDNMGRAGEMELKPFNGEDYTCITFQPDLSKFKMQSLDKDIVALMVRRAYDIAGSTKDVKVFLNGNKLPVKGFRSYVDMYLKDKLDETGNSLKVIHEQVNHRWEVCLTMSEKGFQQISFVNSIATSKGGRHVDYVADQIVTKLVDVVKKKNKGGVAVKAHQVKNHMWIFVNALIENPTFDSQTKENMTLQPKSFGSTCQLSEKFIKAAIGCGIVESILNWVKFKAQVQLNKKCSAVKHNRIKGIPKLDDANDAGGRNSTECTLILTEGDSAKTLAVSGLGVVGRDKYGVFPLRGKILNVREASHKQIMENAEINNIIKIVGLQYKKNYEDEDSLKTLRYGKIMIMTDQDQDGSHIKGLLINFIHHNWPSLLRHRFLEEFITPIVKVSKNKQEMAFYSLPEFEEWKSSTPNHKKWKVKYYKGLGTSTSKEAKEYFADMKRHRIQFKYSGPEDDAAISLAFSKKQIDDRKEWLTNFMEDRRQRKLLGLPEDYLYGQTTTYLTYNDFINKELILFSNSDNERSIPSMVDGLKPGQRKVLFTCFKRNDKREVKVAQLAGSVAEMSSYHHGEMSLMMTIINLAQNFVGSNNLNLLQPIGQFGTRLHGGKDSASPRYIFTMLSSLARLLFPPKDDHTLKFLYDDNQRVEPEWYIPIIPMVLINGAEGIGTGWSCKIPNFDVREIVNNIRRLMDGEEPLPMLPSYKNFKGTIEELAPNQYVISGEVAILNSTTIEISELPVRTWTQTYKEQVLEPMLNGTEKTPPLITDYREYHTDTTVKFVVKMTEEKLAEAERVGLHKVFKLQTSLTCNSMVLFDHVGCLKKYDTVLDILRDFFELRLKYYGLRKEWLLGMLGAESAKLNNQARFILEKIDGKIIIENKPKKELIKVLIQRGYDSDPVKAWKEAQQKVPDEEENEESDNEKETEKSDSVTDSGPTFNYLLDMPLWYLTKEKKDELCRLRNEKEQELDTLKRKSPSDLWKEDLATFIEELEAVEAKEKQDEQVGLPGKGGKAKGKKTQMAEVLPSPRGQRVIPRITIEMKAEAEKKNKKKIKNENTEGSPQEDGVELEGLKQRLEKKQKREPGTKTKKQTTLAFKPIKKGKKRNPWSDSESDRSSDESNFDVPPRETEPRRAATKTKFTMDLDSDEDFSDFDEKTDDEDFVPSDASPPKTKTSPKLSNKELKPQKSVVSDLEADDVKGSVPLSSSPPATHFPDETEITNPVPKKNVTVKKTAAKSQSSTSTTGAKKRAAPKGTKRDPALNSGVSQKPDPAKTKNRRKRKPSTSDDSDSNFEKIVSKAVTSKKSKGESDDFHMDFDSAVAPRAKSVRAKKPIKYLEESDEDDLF

With `CCc1nc2nc(Nc3ccc4nc(OCCN5CCOCC5)ccc4c3)nc(NC(C)(C)C)c2[nH]1` [QAP 1], the IC50 in assay [1] came to 770 nM; in assay [3] (full length tagged human topoisomerase II alpha, 400 μM ATP), 128 ± 21 nM. In addition, the “selectivity over a standard panel of kinases” value in assay [2] is “greater than 10 fold”. In assay [3] (non-linear regression, competitive vs uncompetitive vs mixed models), the “mode of inhibition (kinetic analysis, F-test)” value is given as “ATP-competitive inhibitor”.

Source of the values: PMC2628638, “Catalytic inhibition of topoisomerase II by a novel rationally designed ATP-competitive purine analogue” (BMC Chemical Biology, 2009).
